Numbers after ± are expanded uncertainties.
Experiment: mn = molality of the nth substance listed, in mol/kg
Settings: 100 kPa, Liquid; for speed of sound: Frequency=3 MHz, Single path-length method; for mass density: Vibrating tube method

OC[C@H]1O[C@@](CO)(O[C@H]2O[C@H](CO)[C@@H](O)[C@H](O)[C@H]2O)[C@@H](O)[C@@H]1O [D-sucrose] + O
Settings	mass density, 288.15 K [kg/m3]	mass density, 298.15 K [kg/m3]	mass density, 308.15 K [kg/m3]	mass density, 318.15 K [kg/m3]	speed of sound, 288.15 K [m/s]	speed of sound, 298.15 K [m/s]	speed of sound, 308.15 K [m/s]	speed of sound, 318.15 K [m/s]
m1 = 0.1002	1012.01 ± 8	1009.81 ± 8	1006.68 ± 8	1002.77 ± 8	1476.3 ± 16	1506 ± 16	1528.2 ± 16	1544 ± 16
m1 = 0.2007	1024.37 ± 8	1022.04 ± 8	1018.8 ± 8	1014.82 ± 8	1486.2 ± 16	1515 ± 16	1536.5 ± 16	1552.6 ± 16
m1 = 0.3011	1036.19 ± 8	1033.73 ± 8	1030.39 ± 8	1026.34 ± 8	1496 ± 16	1524 ± 16	1544.7 ± 16	1560.1 ± 16
m1 = 0.4034	1047.72 ± 8.1	1045.13 ± 8	1041.69 ± 8	1037.58 ± 8	1506 ± 16	1533.2 ± 16	1553.1 ± 16	1567.7 ± 16
m1 = 0.4996	1058.12 ± 8.1	1055.43 ± 8.1	1051.89 ± 8.1	1047.73 ± 8.1	1515.3 ± 16	1541.7 ± 16	1561 ± 16	1576 ± 16
m1 = 0.6018	1068.73 ± 8.1	1065.92 ± 8.1	1062.29 ± 8.1	1058.07 ± 8.1	1525.2 ± 16	1550.6 ± 16	1569.3 ± 16	1584.2 ± 16
m1 = 0.7022	1078.71 ± 8.1	1075.81 ± 8.1	1072.09 ± 8.1	1067.82 ± 8.1	1534.9 ± 16	1559.3 ± 16	1577.2 ± 16	1592 ± 16
m1 = 0.7978	1087.87 ± 8.1	1084.86 ± 8.1	1081.07 ± 8.1	1076.72 ± 8.1	1543.9 ± 16	1567.4 ± 16	1584.8 ± 16	1599.6 ± 16
m1 = 0.8955	1096.86 ± 8.2	1093.77 ± 8.2	1089.9 ± 8.2	1085.49 ± 8.2	1552.9 ± 16	1575.6 ± 16	1592.3 ± 16	1606.7 ± 16
m1 = 0.9969	1105.83 ± 8.2	1102.65 ± 8.2	1098.71 ± 8.2	1094.23 ± 8.2	1562.2 ± 16	1583.8 ± 16	1600.1 ± 16	1614.4 ± 16

O=C([O-])CC(O)(CC(=O)[O-])C(=O)[O-].[NH4+].[NH4+].[NH4+] [ammonium 2-hydroxypropane-1,2,3-tricarboxylate] + O
Settings	mass density, 288.15 K [kg/m3]	mass density, 298.15 K [kg/m3]	mass density, 308.15 K [kg/m3]	mass density, 318.15 K [kg/m3]	speed of sound, 288.15 K [m/s]	speed of sound, 298.15 K [m/s]	speed of sound, 308.15 K [m/s]	speed of sound, 318.15 K [m/s]
m1 = 0.2	1021.37 ± 8	1019 ± 8	1015.71 ± 8	1011.75 ± 8	1503.1 ± 16	1532 ± 16	1553.5 ± 16	1569 ± 16
m1 = 0.4	1043.45 ± 8	1040.15 ± 8	1037.34 ± 8	1033.31 ± 8	1540.4 ± 16	1567.3 ± 16	1587.8 ± 16	1602.3 ± 16
m1 = 0.6	1063.76 ± 8.1	1060.41 ± 8.1	1057.21 ± 8.1	1052.93 ± 8.1	1578.7 ± 16	1603.6 ± 16	1621.9 ± 16	1635.4 ± 16

O=C([O-])CC(O)(CC(=O)[O-])C(=O)[O-].[Li+].[Li+].[Li+] [trilithium citrate] + O
Settings	mass density, 288.15 K [kg/m3]	mass density, 298.15 K [kg/m3]	mass density, 308.15 K [kg/m3]	mass density, 318.15 K [kg/m3]	speed of sound, 288.15 K [m/s]	speed of sound, 298.15 K [m/s]	speed of sound, 308.15 K [m/s]	speed of sound, 318.15 K [m/s]
m1 = 0.2	1027.21 ± 8	1025.32 ± 8	1021.67 ± 8	1017.79 ± 8	1509.2 ± 16	1535.8 ± 16	1556 ± 16	1570.2 ± 16
m1 = 0.4	1052.75 ± 8.1	1050.41 ± 8.1	1046.92 ± 8.1	1042.96 ± 8.1	1548 ± 16	1572.6 ± 16	1590.3 ± 16	1602.4 ± 16
m1 = 0.6	1078.28 ± 8.1	1075.38 ± 8.1	1071.84 ± 8.1	1068 ± 8.1	1589.2 ± 16	1610.5 ± 16	1625.9 ± 16	1635.7 ± 16
